We go through 5 compounds from ChEMBL document CHEMBL1151301, “Isolation of translactone-containing triterpenes with thrombin inhibitory activities from the leaves of Lantana camara” (J Nat Prod, 1998).

The test addresses Prothrombin (Homo sapiens, UniProt P00734). Kind of test: Inhibition of human thrombin by fibrinogen-clot assay.
On to `CC(=O)O[C@@H]1CC[C@@]2(C)[C@@H](CC=C3[C@@H]2CC[C@@]2(C)[C@H]4[C@H](C[C@]32C)OC(=O)[C@@H]4CC(=O)C=C(C)C)[C@]1(C)C(=O)O`, for which the IC50 (as a rule, the point on the concentration scale where inhibition reaches its midpoint) is 18 nM. Take `CC(=O)O[C@@H]1CC[C@@]2(C)[C@@H](CC=C3[C@@H]2C[C@H](O)[C@@]2(C)[C@H]4[C@H](C[C@]32CO)OC(=O)[C@@H]4CC(=O)C=C(C)C)[C@]1(C)C(=O)O[C@@H]1O[C@H](CO)[C@@H](O)[C@H](O)[C@H]1O`: half-maximal inhibition (IC50) was put at 130 nM. Under `CC(=O)OC[C@]12C[C@@H]3OC(=O)[C@H](CC(=O)C=C(C)C)[C@H]3[C@]1(C)[C@@H](O)C[C@H]1C2=CC[C@@H]2[C@]1(C)CC[C@@H](OC(C)=O)[C@@]2(C)C(=O)O[C@@H]1O[C@H](CO)[C@@H](O)[C@H](O)[C@H]1O` stands 70 nM; under `CC(=O)O[C@@H]1CC[C@@]2(C)[C@@H](CC=C3[C@@H]2C[C@H](O)[C@@]2(C)[C@H]4[C@H](C[C@]32C)OC(=O)[C@@H]4CC(=O)C=C(C)C)[C@]1(C)C(=O)O`, 90 nM; under `CC(C)=CC(=O)C[C@H]1C(=O)O[C@H]2C[C@]3(C)C4=CC[C@@H]5[C@](C)(CC[C@H]6OC(=O)[C@@]56C)[C@H]4CC[C@@]3(C)[C@@H]21`, 50 nM.
